Measurements from patent US7504403B2, “Substituted heterocyclic compounds and methods of use” (Amgen Inc., priority 2004, dated 2009).
pIC50: −log10 of the molar value.

These compounds were tested on LPS induced TNF release (assay: Lipopolysaccharide-Activated THP1 Cell TNF Production Assay). Details: Homo sapiens, THP-1.
Type: cell-based
Description: Lipopolysaccharide-Activated THP1 Cell TNF Production Assay
THP1 cells are resuspended in fresh THP1 media (RPMI 1640, 10% heat-inactivated FBS, 1×PGS, 1×NEAA, plus 30 μM βME) at a concentration of 1E6/mL. One hundred microliters of cells per well are plated in a polystyrene 96-well tissue culture. One microgram per mL of bacterial LPS is prepared in THP1 media and is transferred to the wells. Test compounds are dissolved in 100% DMSO and are serially diluted 3 fold in a polypropylene 96-well microtiter plate (drug plate). HI control and LO control wells contain only DMSO. One microliter of test compound from the drug plate followed by 10 μL of LPS are transferred to the cell plate. The treated cells are induced to synthesize and secrete TNF-α at 37° C. for 3 h. Forty microliters of conditioned media are transferred to a 96-well polypropylene plate containing 110 μL of ECL buffer (50 mM Tris-HCl pH 8.0, 100 mM NaCl, 0.05% Tween 20, 0.05% NaN3 and 1%FBS) supplemented with 0.44 nM MAB610 monoclonal Ab (R&D Systems), 0.34 nM ruthenylated AF210NA polyclonal Ab (R&D Systems) and 44 μg/mL sheep anti-mouse M280 Dynabeads (Dynal). After a 2 h incubation at room temperature with shaking, the reaction is read on the ECL M8 Instrument (IGEN Inc.). A low voltage is applied to the ruthenylated TNF-α immune complexes, which in the presence of TPA (the active component in Origlo), results in a cyclical redox reaction generating light at […]. The amount of secreted TNF-α in the presence of compound compared with that in the presence of DMSO vehicle alone (HI control) is calculated using the formula: % control (POC)=(cpd−average LO)/(average HI−average LO)*100. Data (consisting of POC and inhibitor concentration in μM) is fitted to a 4-parameter equation (y=A+((B−A)/(1+((x/C)^D))), where A is the minimum y (POC) value, B is the maximum y (POC), C is the x (cpd concentration) at the point of inflection and D is the slope factor) using a Levenburg-Marquardt non-linear regression algorithm.

pIC50, ≥ 4.70:
O=c1cc(-c2ccccc2)cc2n1CCCN2c1cc(NCCc2ccccc2Cl)ncn1 [Example 86, 1-{6-[2-(2-Chloro-phenyl)-ethylamino]-pyrimidin-4-yl}-8-phenyl-1,2,3,4-tetrahydro-pyrido[1,2-a]pyrimidin-6-one]
O=c1cc(-c2ccccc2)cc2n1CCN2c1ccnc(NCCc2ccccc2)n1 [Example 87, 1-(2-Phenethylamino-pyrimidin-4-yl)-7-phenyl-2,3-dihydro-1H-imidazo[1,2-a]pyridin-5-one]
CC(Cc1cccc(CO)c1)Nc1nccc(N2CCn3c2cc(-c2ccccc2)cc3=O)n1 (stereo not shown) [Example 88, 1-{2-[2-(3-Hydroxymethyl-phenyl)-1-methyl-ethylamino]-pyrimidin-4-yl}-7-phenyl-2,3-dihydro-1H-imidazo[1,2-a]pyridin-5-one]
O=c1cc(-c2ccccc2)cc2n1CCN2c1cncc(NCCc2ccccc2)n1 [Example 89, 1-(6-Phenethylamino-pyrazin-2-yl)-7-phenyl-2,3-dihydro-1H-imidazo[1,2-a]pyridin-5-one]
